Experimental data as given in PubChem BioAssay (NCI).
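Cultured in 96-well plates, cells were exposed to test compound for 48 hours across five concentrations. GI50 = concentration required for 50% inhibition of growth. TGI denotes the concentration required for complete inhibition of growth.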

Key:
Assay in all cases: NCI-60 cell line screen, 48 h
[1] = system: UACC-62 melanoma
[2] = system: SK-MEL-2 melanoma
[3] = system: SF-268 CNS
[4] = system: SK-OV-3 ovarian
[5] = system: A549 NSCLC
[6] = system: SF-539 CNS
[7] = system: OVCAR-5 ovarian
[8] = system: TK-10 renal
[9] = system: 786-0 renal
[10] = system: ACHN renal
[11] = system: LOX IMVI melanoma
[12] = system: HCT-15 colon
[13] = system: UACC-257 melanoma
[14] = system: RPMI-8226 leukemia
[15] = system: KM12 colon
[16] = system: A498 renal
[17] = system: BT-549 breast

| Structure (SMILES) | TGI [1] [µM] | TGI [2] [µM] | TGI [3] [µM] | TGI [4] [µM] | TGI [5] [µM] | TGI [6] [µM] | TGI [7] [µM] | TGI [8] [µM] | TGI [9] [µM] | TGI [10] [µM] | TGI [11] [µM] | TGI [12] [µM] | TGI [13] [µM] | TGI [14] [µM] | TGI [15] [µM] | TGI [16] [µM] | TGI [17] [µM] | GI50 [3] [µM] |
| --- | --- | --- | --- | --- | --- | --- | --- | --- | --- | --- | --- | --- | --- | --- | --- | --- | --- | --- |
| O=c1cc(-c2ccc(Cl)cc2)oc2cc(OCCCOc3ccc4c(=O)cc(-c5ccc(Cl)cc5)oc4c3)ccc12 | > 100 | > 100 | > 100 | > 100 | > 100 | > 100 | > 100 | > 100 | > 100 | > 100 | > 100 | > 100 | > 100 | > 100 | > 100 |  |  |  |
| COc1ccc(/C=C2\N=C(NN)N=C2Cl)cc1 |  | > 100 | > 100 | > 100 | > 100 | > 100 | > 100 | > 100 | > 100 | > 100 | > 100 | > 100 | > 100 | > 100 | > 100 | > 100 |  |  |
| O=C(c1ccc(Br)cc1)n1c2ccc(Br)cc2c2nc3ccccc3nc21 | > 100 | > 100 | > 100 |  |  | > 100 | > 100 | > 100 | > 100 | > 100 | > 100 | > 100 | > 100 | > 100 | > 100 |  | > 100 |  |
| CC(=O)OC1CC[C@]2(C)C3CC[C@@]4(C)C(CCC4[C@H](C)CCCC(C)C)[C@@H]3CCC2(Br)C1 (stereo not given in full) | > 50 |  | 28.1 | > 50 | > 50 | 18.5 | > 50 | 26.5 | 17.5 | 20.2 | 29.4 | 33.2 | > 50 |  | > 50 | 18 |  |  |
| O=C(O)CCCOc1cc(-c2ccccc2F)nc2cc3c(cc12)OCO3 | > 100 | > 100 | > 100 | > 100 | > 100 | 63.2 | > 100 | > 100 | > 100 |  | > 100 | > 100 |  | > 100 | > 100 |  | > 100 | 16.3 |
| CC#CCCN(CC#N)Cc1ccccc1 | 32.9 | > 100 | > 100 | > 100 | > 100 |  | > 100 | > 100 | > 100 | 48 | > 100 | > 100 | > 100 | > 100 | > 100 | 37.2 |  |  |
| CSc1nc2[nH]c(=O)c(C)nc2c(=O)[nH]1 | > 100 | > 100 | > 100 | > 100 | > 100 |  | > 100 | > 100 | > 100 | > 100 | > 100 | > 100 | > 100 | > 100 | > 100 | > 100 |  |  |
| C/C=C/C(=O)N1C(=O)OC[C@@H]1c1ccccc1 |  | 36.9 | 44.1 | 33.3 | 36.3 | 38.5 | 31.7 | 32.2 | 35 | 33.5 | 35 | 53.8 | 39.9 | 50 | 29.3 | 45.7 |  |  |
| CC(=O)Nc1ccc(C(=O)NN2C(=O)C(Cl)C2c2ccccc2O)cc1 (stereo not given) | > 100 | > 100 | > 100 | > 100 | > 100 | > 100 | > 100 | > 100 | > 100 | > 100 | 48.9 | > 100 | > 100 |  |  | > 100 |  |  |
| Nc1nc(Cl)c2nnn(CC3CCC(CO)C3)c2n1 (stereo not given) | > 100 | > 100 | > 100 | > 100 | > 100 | > 100 | > 100 | > 100 | > 100 | > 100 | > 100 | > 100 | > 100 | > 100 | > 100 | > 100 |  |  |
| COC(=O)[C@@]12OC[C@]34C([C@@H](O)C1O)[C@@]1(C)CC(=O)C(OC(=O)/C=C(/c5ccccc5)C(F)(F)F)=C(C)C1C[C@H]3OC(=O)[C@H](O)[C@H]42 (stereo not given in full) | 11.7 | 27.4 | > 50 | > 50 | > 50 | 13 | > 50 | > 50 | > 50 | > 50 |  | > 50 | > 50 | 13.9 | > 50 | 2.26 |  |  |
| CC(C)C(/C=C/c1ccc(Br)cc1)=N\NC(N)=O | > 100 | > 100 | > 100 | > 100 | > 100 | > 100 | > 100 | > 100 | > 100 | > 100 | > 100 | > 100 | > 100 | > 100 | > 100 |  |  |  |
| O=c1[nH]n(Cc2ccccn2)c2ccc([N+](=O)[O-])cc12 | > 100 | > 100 | > 100 |  | > 100 | > 100 | > 100 | > 100 | > 100 | > 100 | > 100 | > 100 | > 100 | > 100 | > 100 | > 100 |  |  |
| O=C1/C(=C/c2ccc(Cl)cc2)N=C(c2ccccc2)N1c1ccc(S(=O)(=O)Nc2nccs2)cc1 | 53.1 | 47.3 | > 100 | > 100 | > 100 | > 100 | > 100 | > 100 | > 100 | > 100 | > 100 | > 100 | > 100 | 49.5 | > 100 | > 100 |  |  |
| CN(CCCNC(=O)c1nn(-c2ccc(Cl)cc2Cl)c2c1ccc1ccccc12)CCCNC(=O)c1nn(-c2ccc(Cl)cc2Cl)c2c1ccc1ccccc12 | 3.03 | 3.09 | 3.22 | 3.49 | 3.11 | 3.47 | 3.57 | 3.41 | 2.95 | 3.02 | 3.2 | 3.24 | 3.26 | 4.36 | 3.26 | 2.77 |  |  |
